According to ChEMBL document CHEMBL1275501, “Plasmid-mediated quinolone resistance pump QepA2 in an Escherichia coli isolate from France” (2008):
In brackets after ≈: the same amount, converted by molar mass.

Tests used:
Escherichia coli [1] = assay: Antimicrobial activity against Escherichia coli BicA expressing blaTEM-1, blaCTX-M-15 and qepA2 gene by disk diffusion method
Escherichia coli [2] = assay: Antimicrobial activity against azide-resistant Escherichia coli J53 harboring pCTX-M plasmid carrying blaCTX-M-15 gene by disk diffusion method; assay type: functional
Escherichia coli [3] = assay: Antimicrobial activity against azide-resistant Escherichia coli J53 harboring pCTX-M carrying blaCTX-M-15 and pQep plasmid carrying qepA2 gene by disk diffusion method; assay type: functional
Escherichia coli [4] = assay: Antimicrobial activity against azide-resistant Escherichia coli J53 by disk diffusion method; assay type: functional
Escherichia coli [5] = assay: Antimicrobial activity against Escherichia coli TOP10 harboring pQep plasmid carrying qepA2 gene by disk diffusion method; assay type: functional
Escherichia coli [6] = assay: Antimicrobial activity against Escherichia coli TOP10 by disk diffusion method; assay type: functional
Escherichia coli [7] = assay: Antimicrobial activity against azide-resistant Escherichia coli J53 harboring pCTX-M plasmid carrying blaCTX-M-15 gene by disk diffusion method in presence of beta-lactamase inhibitor clavulanic acid; assay type: functional
Escherichia coli [8] = assay: Antimicrobial activity against azide-resistant Escherichia coli J53 harboring pCTX-M carrying blaCTX-M-15 and pQep plasmid carrying qepA2 gene by disk diffusion method in presence of beta-lactamase inhibitor clavulanic acid; assay type: functional
Escherichia coli [9] = assay: Antimicrobial activity against azide-resistant Escherichia coli J53 by disk diffusion method in presence of beta-lactamase inhibitor clavulanic acid; assay type: functional
Escherichia coli [10] = assay: Antimicrobial activity against Escherichia coli TOP10 harboring pQep plasmid carrying qepA2 gene by disk diffusion method in presence of beta-lactamase inhibitor clavulanic acid; assay type: functional
Escherichia coli [11] = assay: Antimicrobial activity against Escherichia coli TOP10 by disk diffusion method in presence of beta-lactamase inhibitor clavulanic acid; assay type: functional
Escherichia coli [12] = assay: Antimicrobial activity against Escherichia coli BicA expressing blaTEM-1, blaCTX-M-15 and qepA2 gene by disk diffusion method in presence of beta-lactamase inhibitor clavulanic acid; assay type: functional

Compound | MIC (Escherichia coli [1]) [µg/mL] | MIC (Escherichia coli [2]) [µg/mL] | MIC (Escherichia coli [3]) [µg/mL] | MIC (Escherichia coli [4]) [µg/mL] | MIC (Escherichia coli [5]) [µg/mL] | MIC (Escherichia coli [6]) [µg/mL] | MIC (Escherichia coli [7]) [µg/mL] | MIC (Escherichia coli [8]) [µg/mL] | MIC (Escherichia coli [9]) [µg/mL] | MIC (Escherichia coli [10]) [µg/mL] | MIC (Escherichia coli [11]) [µg/mL] | MIC (Escherichia coli [12]) [µg/mL]
CO/N=C(\C(=O)N[C@@H]1C(=O)N2C(C(=O)[O-])=C(C[N+]3(C)CCCC3)CS[C@H]12)c1csc(N)n1 | > 32 | 16 (≈ 33.3 µM) | 16 (≈ 33.3 µM) | 0.01 (≈ 0.0208 µM) | 0.12 (≈ 0.25 µM) | – | – | – | – | – | – | –
NCC[C@H](O)C(=O)N[C@@H]1C[C@H](N)[C@@H](O[C@H]2O[C@H](CN)[C@@H](O)[C@H](O)[C@H]2O)[C@H](O)[C@H]1O[C@H]1O[C@H](CO)[C@@H](O)[C@H](N)[C@H]1O [AMIKACIN] | 2 (≈ 3.42 µM) | 1 (≈ 1.71 µM) | 1 (≈ 1.71 µM) | 1 (≈ 1.71 µM) | 1 (≈ 1.71 µM) | 1 (≈ 1.71 µM) | – | – | – | – | – | –
CC1(C)S[C@@H]2[C@H](NC(=O)[C@H](N)c3ccc(O)cc3)C(=O)N2[C@H]1C(=O)O [AMOXICILLIN] | > 256 | > 256 | > 256 | 4 (≈ 10.9 µM) | > 256 | 4 (≈ 10.9 µM) | 16 | 16 | 4 | 16 | 4 | 16
C[C@H]1[C@H](NC(=O)/C(=N\OC(C)(C)C(=O)O)c2csc(N)n2)C(=O)N1S(=O)(=O)O [AZTREONAM] | > 32 | 16 (≈ 36.7 µM) | 16 (≈ 36.7 µM) | – | – | – | – | – | – | – | – | –
CO/N=C(\C(=O)N[C@@H]1C(=O)N2C(C(=O)O)=C(COC(C)=O)CS[C@H]12)c1csc(N)n1 [CEFOTAXIME] | > 32 | > 32 | > 32 | 0.06 (≈ 0.132 µM) | 0.06 (≈ 0.132 µM) | 0.06 (≈ 0.132 µM) | – | – | – | – | – | –
CC(C)(O/N=C(\C(=O)N[C@@H]1C(=O)N2C(C(=O)[O-])=C(C[n+]3ccccc3)CS[C@H]12)c1csc(N)n1)C(=O)O [CEFTAZIDIME] | > 32 | 16 (≈ 29.3 µM) | 16 (≈ 29.3 µM) | 0.12 (≈ 0.22 µM) | 0.12 (≈ 0.22 µM) | 0.06 (≈ 0.11 µM) | – | – | – | – | – | –
CC(=O)OCC1=C(C(=O)O)N2C(=O)[C@@H](NC(=O)Cc3cccs3)[C@H]2SC1 [CEPHALOTHIN] | > 256 | > 256 | > 256 | 8 (≈ 20.2 µM) | 8 (≈ 20.2 µM) | 4 (≈ 10.1 µM) | – | – | – | – | – | –
O=C(N[C@H](CO)[C@H](O)c1ccc([N+](=O)[O-])cc1)C(Cl)Cl [CHLORAMPHENICOL] | > 256 | 8 (≈ 24.8 µM) | > 256 | 8 (≈ 24.8 µM) | > 256 | 4 (≈ 12.4 µM) | – | – | – | – | – | –
O=C(O)c1cn(C2CC2)c2cc(N3CCNCC3)c(F)cc2c1=O [CIPROFLOXACIN] | > 32 | – | – | – | – | – | – | – | – | – | – | –
CCN1CCN(c2cc3c(cc2F)c(=O)c(C(=O)O)cn3C2CC2)CC1 [ENROFLOXACIN] | > 32 | 0.06 (≈ 0.167 µM) | 0.06 (≈ 0.167 µM) | 0.03 (≈ 0.0835 µM) | 0.008 (≈ 0.0223 µM) | 0.003 (≈ 0.00835 µM) | – | – | – | – | – | –
COc1c(N2CCNC(C)C2)c(F)cc2c(=O)c(C(=O)O)cn(C3CC3)c12 (configuration not stated) [GATIFLOXACIN] | > 32 | 0.06 (≈ 0.16 µM) | 0.12 (≈ 0.32 µM) | 0.01 (≈ 0.0266 µM) | 0.01 (≈ 0.0266 µM) | 0.003 (≈ 0.00799 µM) | – | – | – | – | – | –
C[C@@H](O)[C@H]1C(=O)N2C(C(=O)O)=C(SCCNC=N)C[C@H]12 [IMIPENEM ANHYDROUS] | 0.5 (≈ 1.67 µM) | 0.25 (≈ 0.835 µM) | 0.25 (≈ 0.835 µM) | 0.06 (≈ 0.2 µM) | – | – | – | – | – | – | – | –
C[C@H]1COc2c(N3CCN(C)CC3)c(F)cc3c(=O)c(C(=O)O)cn1c23.C[C@H]1COc2c(N3CCN(C)CC3)c(F)cc3c(=O)c(C(=O)O)cn1c23.O [LEVOFLOXACIN] | > 32 | – | – | – | – | – | – | – | – | – | – | –
COc1c(N2C[C@@H]3CCCN[C@@H]3C2)c(F)cc2c(=O)c(C(=O)O)cn(C3CC3)c12 [MOXIFLOXACIN] | > 32 | – | 0.12 (≈ 0.299 µM) | – | 0.01 (≈ 0.0249 µM) | 0.004 (≈ 0.00996 µM) | – | – | – | – | – | –
CCn1cc(C(=O)O)c(=O)c2ccc(C)nc21 [NALIDIXIC ACID] | > 256 | 4 (≈ 17.2 µM) | 4 (≈ 17.2 µM) | 4 (≈ 17.2 µM) | 1.5 (≈ 6.46 µM) | 1 (≈ 4.31 µM) | – | – | – | – | – | –
CCN[C@@H]1C[C@H](N)[C@@H](O[C@H]2OC(CN)=CC[C@H]2N)[C@H](O)[C@H]1O[C@H]1OC[C@](C)(O)[C@H](NC)[C@H]1O [NETILMICIN] | 0.5 (≈ 1.05 µM) | 0.12 (≈ 0.252 µM) | 0.12 (≈ 0.252 µM) | 0.12 (≈ 0.252 µM) | 0.25 (≈ 0.526 µM) | 0.25 (≈ 0.526 µM) | – | – | – | – | – | –
CCn1cc(C(=O)O)c(=O)c2cc(F)c(N3CCNCC3)cc21 [NORFLOXACIN] | > 256 | 0.06 (≈ 0.188 µM) | 1 (≈ 3.13 µM) | 0.06 (≈ 0.188 µM) | 0.5 (≈ 1.57 µM) | 0.03 (≈ 0.0939 µM) | – | – | – | – | – | –
CC1COc2c(N3CCN(C)CC3)c(F)cc3c(=O)c(C(=O)O)cn1c23 (configuration not stated) [OFLOXACIN] | > 32 | – | – | – | – | – | – | – | – | – | – | –
CCn1cc(C(=O)O)c(=O)c2cc(F)c(N3CCN(C)CC3)cc21 [PEFLOXACIN] | > 32 | 0.06 (≈ 0.18 µM) | 0.06 (≈ 0.18 µM) | 0.06 (≈ 0.18 µM) | – | 0.03 (≈ 0.09 µM) | – | – | – | – | – | –
CO[C@H]1/C=C/O[C@@]2(C)Oc3c(C)c(O)c4c(O)c(c(/C=N/N5CCN(C)CC5)c(O)c4c3C2=O)NC(=O)/C(C)=C\C=C\[C@H](C)[C@H](O)[C@@H](C)[C@@H](O)[C@@H](C)[C@H](OC(C)=O)[C@@H]1C [RIFAMPIN] | 16 (≈ 19.4 µM) | 8 (≈ 9.72 µM) | 8 (≈ 9.72 µM) | 8 (≈ 9.72 µM) | 16 (≈ 19.4 µM) | 16 (≈ 19.4 µM) | – | – | – | – | – | –
Cc1cc(NS(=O)(=O)c2ccc(N)cc2)no1 [SULFAMETHOXAZOLE] | > 256 | 16 (≈ 63.2 µM) | > 256 | 16 (≈ 63.2 µM) | > 256 | 16 (≈ 63.2 µM) | – | – | – | – | – | –
CN(C)[C@@H]1C(O)=C(C(N)=O)C(=O)[C@@]2(O)C(O)=C3C(=O)c4c(O)cccc4[C@@](C)(O)[C@H]3C[C@@H]12 [TETRACYCLINE] | > 256 | 2 (≈ 4.5 µM) | 2 (≈ 4.5 µM) | 2 (≈ 4.5 µM) | > 256 | 2 (≈ 4.5 µM) | – | – | – | – | – | –
CC1(C)S[C@@H]2[C@H](NC(=O)[C@H](C(=O)O)c3ccsc3)C(=O)N2[C@H]1C(=O)O [TICARCILLIN] | > 256 | > 256 | > 256 | 4 (≈ 10.4 µM) | > 256 | 4 (≈ 10.4 µM) | – | – | – | – | – | –
NC[C@H]1O[C@H](O[C@H]2[C@H](O)[C@@H](O[C@H]3O[C@H](CO)[C@@H](O)[C@H](N)[C@H]3O)[C@H](N)C[C@@H]2N)[C@H](N)C[C@@H]1O [TOBRAMYCIN] | 0.5 (≈ 1.07 µM) | 0.25 (≈ 0.535 µM) | 0.25 (≈ 0.535 µM) | 0.12 (≈ 0.257 µM) | 0.5 (≈ 1.07 µM) | 0.5 (≈ 1.07 µM) | – | – | – | – | – | –
COc1cc(Cc2cnc(N)nc2N)cc(OC)c1OC [TRIMETHOPRIM] | > 256 | 0.25 (≈ 0.861 µM) | > 256 | 0.25 (≈ 0.861 µM) | > 256 | 0.12 (≈ 0.413 µM) | – | – | – | – | – | –
GENTAMICIN | – | 0.12 | 0.12 | 0.12 | 0.25 | 0.25 | – | – | – | – | – | –
